Among the data in US11214578B2, “Urea/carbamates FAAH MAGL or dual FAAH/MAGL inhibitors and uses thereof” (Northeastern University, priority 2014, dated 2022) are IC50 values, retold here.

Holding throughout (format): biochemical
In assay [1] the target is T1, Human MAGL (hMAGL) (Homo sapiens, UniProt Q99685).
T1 construct: hexahistidine; made in house; host or cells: E. coli
T1 sequence (Q99685 1-303): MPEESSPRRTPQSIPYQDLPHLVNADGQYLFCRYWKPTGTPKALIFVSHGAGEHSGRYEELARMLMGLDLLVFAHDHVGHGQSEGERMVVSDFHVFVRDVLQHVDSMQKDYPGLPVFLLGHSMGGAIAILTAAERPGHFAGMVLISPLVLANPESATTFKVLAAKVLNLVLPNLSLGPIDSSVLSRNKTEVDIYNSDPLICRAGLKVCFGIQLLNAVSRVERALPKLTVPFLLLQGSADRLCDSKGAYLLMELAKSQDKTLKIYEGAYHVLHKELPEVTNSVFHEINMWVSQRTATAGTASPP
Kind of assay: Fluorescent assay protocol for hMAGL (AHMMCE substrate). To be noted: recombinant human MAGL, AHMMCE substrate, 15 min preincubation; read-out: IC50 hMAGL. The method, boiled down:
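Hydrolysis of AHMMCE by human MAGL was monitored at 25°C for 120 min, with fluorescence at 360/460 nm recorded every 15 min and converted to 4-methylcoumarin using external standards. IC50 values were derived from triplicate wells at each inhibitor concentration.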

For assay [2], the target named is T2, Human FAAH (MBPΔTMhFAAH) (Homo sapiens, UniProt O00519).
T2 construct: made in house; host or cells: E. coli (pMALcE4 vector)
T2 sequence (O00519 30-579 limits assumed): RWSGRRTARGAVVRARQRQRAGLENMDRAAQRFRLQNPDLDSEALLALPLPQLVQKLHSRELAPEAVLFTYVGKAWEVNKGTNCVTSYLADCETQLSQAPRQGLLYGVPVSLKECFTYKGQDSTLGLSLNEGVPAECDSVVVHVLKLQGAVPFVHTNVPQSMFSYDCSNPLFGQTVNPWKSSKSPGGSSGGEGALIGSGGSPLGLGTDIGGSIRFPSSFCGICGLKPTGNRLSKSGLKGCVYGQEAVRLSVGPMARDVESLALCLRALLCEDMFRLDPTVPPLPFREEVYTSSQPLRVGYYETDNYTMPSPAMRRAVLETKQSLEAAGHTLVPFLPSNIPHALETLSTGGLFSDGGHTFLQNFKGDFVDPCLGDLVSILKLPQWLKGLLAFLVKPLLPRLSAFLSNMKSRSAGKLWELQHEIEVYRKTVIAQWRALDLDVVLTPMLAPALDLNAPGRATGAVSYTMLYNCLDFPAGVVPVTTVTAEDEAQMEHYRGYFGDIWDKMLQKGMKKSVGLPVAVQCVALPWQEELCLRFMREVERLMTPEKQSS
Kind of assay: Fluorescent assay protocol for hFAAH. The following applies: human FAAH (MBP fusion, ΔTM), procedure as for rFAAH. The procedure, abridged:
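MBP-fused ΔTM human FAAH from E. coli, pre-incubated 15 min at 25 °C with compound in 50 mM HEPES, 1 mM EDTA, 0.1% BSA, pH 7.4 (DMSO below 8%). Substrate AAMCA 20 μM (2×Km); fluorescence (ex 360/em 460) at 3 h gave % inhibition vs uninhibited control, triplicate, IC50 fitted.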

For assay [3], the target named is T3, Rat MAGL (rMAGL) (Rattus norvegicus, UniProt Q8R431).
T3 construct: made in house; host or cells: E. coli
T3 sequence (Q8R431 1-303): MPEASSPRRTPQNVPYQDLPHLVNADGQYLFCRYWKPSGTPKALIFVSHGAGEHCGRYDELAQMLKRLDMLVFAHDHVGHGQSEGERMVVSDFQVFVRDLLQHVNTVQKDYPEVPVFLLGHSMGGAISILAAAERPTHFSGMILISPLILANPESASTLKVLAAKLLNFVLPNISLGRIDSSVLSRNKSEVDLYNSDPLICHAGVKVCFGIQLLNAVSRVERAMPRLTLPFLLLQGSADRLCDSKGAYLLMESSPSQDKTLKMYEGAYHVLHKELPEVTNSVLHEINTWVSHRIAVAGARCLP
Briefly: Fluorescent assay protocol for rMAGL. The following applies: recombinant rat MAGL, procedure as for hMAGL; read-out: IC50 rMAGL. The procedure, abridged: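 Rat MAGL run as for the human enzyme: AHMMCE substrate hydrolysis to fluorescent coumarin followed at 25° C. for 120 min, read every 15 min at 360/460 nm.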

In assay [4] the target is T4, ΔTM rat FAAH (Rattus norvegicus, UniProt P97612).
T4 construct: Preparation of Transmembrane Domain-Deleted Rat FAAH (ΔTM rFAAH); made in house; host or cells: E. coli
T4 sequence (P97612 30-579 limits assumed): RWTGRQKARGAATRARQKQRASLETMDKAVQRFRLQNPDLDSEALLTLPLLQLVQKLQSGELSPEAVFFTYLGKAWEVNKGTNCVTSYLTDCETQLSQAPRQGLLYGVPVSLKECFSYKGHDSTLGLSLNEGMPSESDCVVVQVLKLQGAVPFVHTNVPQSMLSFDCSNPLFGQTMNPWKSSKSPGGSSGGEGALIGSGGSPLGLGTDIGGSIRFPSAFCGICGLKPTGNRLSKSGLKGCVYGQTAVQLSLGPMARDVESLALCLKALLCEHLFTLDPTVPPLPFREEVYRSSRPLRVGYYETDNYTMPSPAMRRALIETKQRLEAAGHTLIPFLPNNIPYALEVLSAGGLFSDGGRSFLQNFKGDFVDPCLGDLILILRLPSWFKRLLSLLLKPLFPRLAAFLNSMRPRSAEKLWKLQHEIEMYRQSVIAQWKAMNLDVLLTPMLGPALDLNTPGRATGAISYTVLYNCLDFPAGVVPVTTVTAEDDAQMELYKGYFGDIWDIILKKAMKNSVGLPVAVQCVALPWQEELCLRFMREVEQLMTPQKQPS
Briefly: Fluorescent assay protocol for ΔTM rat FAAH (AAMCA substrate). To be noted: 15 min preincubation, read-out: IC50 rFAAH. The procedure, abridged:
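ΔTM rat FAAH (15 μg) was pre-incubated 15 min at 25° C with compound (screening at 1, 10 and 100 μM), then reacted with the fluorigenic substrate AAMCA. Percent inhibition came from fluorescence at 3 h (linear kinetics) relative to no-inhibitor controls, in triplicate.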

Take `C[C@@H]1CN(C(=O)Nc2cccc(-c3cccc(C(N)=O)c3)c2)CCN1Cc1ccc2ccccc2n1` [Example 2, (R)—N-(3′-carbamoyl-[1,1′-biphenyl]-3-yl)-3-methyl-4-(quinolin-2-ylmethyl)piperazine-1-carboxamide]: the IC50 in assay [1] was over 1000 nM; in assay [2] it was over 1000 nM; in assay [3] it was over 1000 nM; in assay [4] it was 110 to 1000 nM.
Take `C[C@H]1CN(C(=O)Nc2cccc(-c3cccc(C#N)c3)c2)CCN1Cc1ccc2ccccc2n1` [Example 19, (S)—N-(3′-cyano-[1,1′-biphenyl]-3-yl)-3-methyl-4-(quinolin-2-ylmethyl)piperazine-1-carboxamide]: the IC50 is over 1000 nM in assay [1], 110 to 1000 nM in assay [2], over 1000 nM in assay [3] and 110 to 1000 nM in assay [4].
As for `NC(=O)c1cccc(-c2cccc(NC(=O)N3CCN(C4c5ccccc5-c5ccccc54)CC3)c2)c1` [Example 8, N-(3′-carbamoyl-[1,1′-biphenyl]-3-yl)-4-(9H-fluoren-9-yl)piperazine-1-carboxamide], the IC50 in assay [1] is over 1000 nM; in assay [2] it was 10 to 100 nM; in assay [3] it was over 1000 nM; in assay [4], 10 to 100 nM.
In the case of `O=C(N1CCCCC1)N1CC(OCc2ccc(Br)cc2)C1` [Example 88], the IC50 in assay [1], in assay [2], in assay [3] and in assay [4] was 10 to 100 nM in each case.
As for `O=C(Oc1cccc(-c2cccnc2)c1)N1CC(OCc2ccc(Cl)cc2)C1` [Example 80, 3-(Pyridin-3-yl)phenyl 3-(4-chlorobenzyloxy)azetidine-1-carboxylate], the IC50 was over 1000 nM in assay [1], 10 to 100 nM in assay [2], over 1000 nM in assay [3] and 10 to 100 nM in assay [4].
On to `N#Cc1cccnc1OC(=O)N1CCN(C2c3ccccc3-c3ccccc32)CC1` [Example 43, 3-cyanopyridin-2-yl 4-(9H-fluoren-9-yl)piperazine-1-carboxylate], for which the IC50 in assay [1] was 10 to 100 nM; in assay [2], over 1000 nM; in assay [3] it was 10 to 100 nM; in assay [4], over 1000 nM.
On to `O=C(N1CCN(C(c2ccccc2)c2ccccc2)CC1)n1cnc(-c2ccccc2)c1` [Example 30, (4-benzhydrylpiperazin-1-yl)(4-phenyl-1H-imidazol-1-yl)methanone], for which the IC50 in assay [1] is over 1000 nM; in assay [2] it was 110 to 1000 nM; in assay [3], over 1000 nM; in assay [4], over 1000 nM.
In the case of `CC1CN(c2ccccc2)CCN1C(=O)Oc1cccc(N2CCS(=O)(=O)CC2)c1` (centres unmarked) [Example 73, 3-(1,1-dioxidothiomorpholino)phenyl 2-methyl-4-phenylpiperazine-1-carboxylate], the IC50 is 10 to 100 nM in assay [1], over 1000 nM in assay [2], 10 to 100 nM in assay [3] and over 1000 nM in assay [4].
Take `N#Cc1cccc(OC(=O)N2CCC(S(=O)(=O)c3ccc(Br)cc3)CC2)c1` [Example 59, 3-Cyanophenyl 4-(4-bromophenylsulfonyl)piperidine-1-carboxylate]: the IC50 lay in the range of 10 to 100 nM in assay [1], 10 to 100 nM in assay [2], 10 to 100 nM in assay [3] and 110 to 1000 nM in assay [4].
Regarding `NC(=O)c1cccc(OC(=O)N2CC(OCc3ccc(Cl)cc3)C2)c1` [Example 77, 3-Carbamoylphenyl 3-(4-chlorobenzyloxy)azetidine-1-carboxylate], the IC50 lay within 110 to 1000 nM in assay [1], 10 to 100 nM in assay [2], 110 to 1000 nM in assay [3] and 10 to 100 nM in assay [4].
For the compound `N#Cc1ccnc(OC(=O)N2CCN(C3c4ccccc4-c4ccccc43)CC2)c1` [Example 42, 4-cyanopyridin-2-yl 4-(9H-fluoren-9-yl)piperazine-1-carboxylate], the IC50 in assay [1] was 10 to 100 nM; in assay [2], over 1000 nM; in assay [3], 10 to 100 nM; in assay [4], over 1000 nM.
Consider `COC(=O)c1cccc(OC(=O)N2CCC(=C(c3ccccc3)c3ccccc3)CC2)c1` [Example 48, 3-(methoxycarbonyl)phenyl 4-(diphenylmethylene)piperidine-1-carboxylate], for which the IC50 was over 1000 nM in assay [1], 10 to 100 nM in assay [2], over 1000 nM in assay [3] and 110 to 1000 nM in assay [4].
As for `O=C(Oc1cccc(N2CCS(=O)(=O)CC2)c1)N1CCN(c2ccccc2)CC1` [Example 69, 3-(1,1-dioxidothiomorpholino)phenyl 4-phenylpiperazine-1-carboxylate], the IC50 lay in the range of 10 to 100 nM in assay [1], 110 to 1000 nM in assay [2], 10 to 100 nM in assay [3] and 110 to 1000 nM in assay [4].
Regarding `O=C(Nc1cccc(N2CCS(=O)(=O)CC2)c1)N1CCC(c2ccccc2)CC1` [Example 68, N-(3-(1,1-dioxidothiomorpholino)phenyl)-4-phenylpiperidine-1-carboxamide], the IC50 was 110 to 1000 nM in assay [1], over 1000 nM in assay [2], 110 to 1000 nM in assay [3] and over 1000 nM in assay [4].
`O=C(Nc1cccc(Oc2ccccc2)c1)N1CCN(Cc2ccc3ccccc3n2)CC1` [Example 14, N-(3-phenoxyphenyl)-4-(quinolin-2-ylmethyl)piperazine-1-carboxamide]: the IC50 in assay [1], in assay [2], in assay [3] and in assay [4] was over 1000 nM throughout.
Regarding `O=C(N1CCN(C(c2ccccc2)c2ccccc2)CC1)n1nnnc1Cc1ccccc1` [Example 31, (4-benzhydrylpiperazin-1-yl)(5-benzyl-1H-tetrazol-1-yl)methanone], the IC50 was over 1000 nM in assay [1], 10 to 100 nM in assay [2], over 1000 nM in assay [3] and 10 to 100 nM in assay [4].
For the compound `Cc1ccc(C#N)cc1OC(=O)N1CCC(S(=O)(=O)c2ccc(Br)cc2)CC1` [Example 61, 5-Cyano-2-methylphenyl 4-(4-bromophenylsulfonyl)piperidine-1-carboxylate], the IC50 in assay [1] was over 1000 nM; in assay [2], 10 to 100 nM; in assay [3], 10 to 100 nM; in assay [4], 10 to 100 nM.
